Measured values from patent US20050113292A1 (priority 2003, published 2005).
Where “and” joins values, the source holds several entries; their conditions need not be identical. Equal entries are not always repeated.

Tests used:
R9 HIV-1 virus = type: cell-based; details: 0.01 µM
M-tropic (BAL) HIV-1 = details: for IC50: M-tropic (BAL)
HIV-1 = type: cell-based
[1] = system: HIV-1 mediated cell-cell fusion (R8 virus); details: for EC50 / IC50: mediated cell-cell fusion (R8 virus)
T-tropic (R8) HIV-1 = details: for IC50: T-tropic (R8)
[2] = molecular target: gp41 of T20-resistant HIV-1 virus (HIV-1 (T20-resistant virus)); experiment: cell-based or functional assay
[3] = molecular target: gp41 of HIV-1 NL4-3 (HIV-1 (NL4-3)); experiment: cell-based or functional assay
[4] = molecular target: gp41 of T-tropic HIV-1 R8 virus (HIV-1 (R8)); experiment: cell-based or functional assay
[5] = molecular target: gp41 of M-tropic HIV-1 BAL virus (HIV-1 (BAL)); experiment: cell-based or functional assay

| Compound | percentage of inhibition of cell infection (R9 HIV-1 virus) [%] | fold increase of potency over monomer, BAL virus (M-tropic (BAL) HIV-1) [fold] | IC50 (M-tropic (BAL) HIV-1) [nM] | Neutralization (%) (HIV-1) | fold increase over monomer, cell-cell fusion [1] [fold] | EC50 [1] [nM] | IC50 [1] [nM] | fold increase of potency over monomer, R8 virus (T-tropic (R8) HIV-1) [fold] | IC50 (T-tropic (R8) HIV-1) [nM] | IC50, single-cycle MAGI infection of P4R5 cells, T-20 Resistant Virus [2] [nM] | IC50, single-cycle MAGI infection of P4R5 cells, NL4-3 (MT-4) [3] [nM] | IC50, HIV-1 mediated cell-cell fusion (syncytium formation), R8 virus [4] [nM] | IC50, single-cycle MAGI infectivity, R8 virus [4] [nM] | IC50, single-cycle MAGI infectivity, BAL virus [5] [nM] |
| --- | --- | --- | --- | --- | --- | --- | --- | --- | --- | --- | --- | --- | --- | --- |
| CC[C@H](C)[C@H](NC(=O)[C@H](CC(C)C)NC(=O)[C@H](CO)NC(=O)[C@H](Cc1c[nH]cn1)NC(=O)[C@@H](NC(=O)[C@H](CC(C)C)NC(=O)[C@H](CO)NC(=O)[C@@H](NC(=O)[C@H](Cc1ccc(O)cc1)NC(=O)[C@@H]1CSC(C(=O)NCCCC[C@H](NC(=O)CCNC(=O)C2N[C@H](C(=O)N[C@@H](Cc3ccc(O)cc3)C(=O)N[C@H](C(=O)N[C@@H](CO)C(=O)N[C@@H](CC(C)C)C(=O)N[C@H](C(=O)N[C@@H](Cc3c[nH]cn3)C(=O)N[C@@H](CO)C(=O)N[C@@H](CC(C)C)C(=O)N[C@H](C(=O)N[C@@H](CCC(=O)O)C(=O)N[C@@H](CCC(=O)O)C(=O)N[C@@H](CO)C(=O)N[C@@H](CCC(N)=O)C(=O)N[C@@H](CC(N)=O)C(=O)N[C@@H](CCC(N)=O)C(=O)N[C@@H](CCC(N)=O)C(=O)N[C@@H](CCC(=O)O)C(=O)N[C@@H](CCCCN)C(=O)N[C@@H](CC(N)=O)C(=O)N[C@@H](CCC(=O)O)C(=O)N[C@@H](CCC(N)=O)C(=O)N[C@@H](CCC(=O)O)C(=O)N[C@@H](CC(C)C)C(=O)N[C@@H](CC(C)C)C(=O)N[C@@H](CCC(=O)O)C(=O)N[C@@H](CC(C)C)C(=O)N[C@@H](CC(=O)O)C(=O)N[C@@H](CCCCN)C(=O)N[C@@H](Cc3c[nH]c4ccccc34)C(=O)N[C@@H](C)C(=O)N[C@@H](CO)C(=O)N[C@@H](CC(C)C)C(=O)N[C@@H](Cc3c[nH]c4ccccc34)C(=O)N[C@@H](CC(N)=O)C(=O)N[C@@H](Cc3c[nH]c4ccccc34)C(=O)N[C@@H](Cc3ccccc3)C(=O)O)[C@@H](C)CC)[C@@H](C)CC)[C@@H](C)O)CS2)C(=O)N[C@@H](CO)C(=O)N[C@@H](CO)C(=O)N[C@@H](C)C(N)=O)N1)[C@@H](C)O)[C@@H](C)CC)C(=O)N[C@@H](CCC(=O)O)C(=O)N[C@@H](CCC(=O)O)C(=O)N[C@@H](CO)C(=O)N[C@@H](CCC(N)=O)C(=O)N[C@@H](CC(N)=O)C(=O)N[C@@H](CCC(N)=O)C(=O)N[C@@H](CCC(N)=O)C(=O)N[C@@H](CCC(=O)O)C(=O)N[C@@H](CCCCN)C(=O)N[C@@H](CC(N)=O)C(=O)N[C@@H](CCC(=O)O)C(=O)N[C@@H](CCC(N)=O)C(=O)N[C@@H](CCC(=O)O)C(=O)N[C@@H](CC(C)C)C(=O)N[C@@H](CC(C)C)C(=O)N[C@@H](CCC(=O)O)C(=O)N[C@@H](CC(C)C)C(=O)N[C@@H](CC(=O)O)C(=O)N[C@@H](CCCCN)C(=O)N[C@@H](Cc1c[nH]c2ccccc12)C(=O)N[C@@H](C)C(=O)N[C@@H](CO)C(=O)N[C@@H](CC(C)C)C(=O)N[C@@H](Cc1c[nH]c2ccccc12)C(=O)N[C@@H](CC(N)=O)C(=O)N[C@@H](Cc1c[nH]c2ccccc12)C(=O)N[C@@H](Cc1ccccc1)C(=O)O (stereo partly drawn) [Compound 2α-DP178] | ~100 | 14 | 0.28 | <5% and 6% | 122 | 0.18 | 0.18 | 182 | 0.42 | – | – | – | – | – |
| CC[C@H](C)[C@H](NC(=O)[C@H](CC(C)C)NC(=O)[C@H](CO)NC(=O)[C@H](Cc1c[nH]cn1)NC(=O)[C@@H](NC(=O)[C@H](CC(C)C)NC(=O)[C@H](CO)NC(=O)[C@@H](NC(=O)[C@H](Cc1ccc(O)cc1)NC(=O)[C@H](CC(N)=O)NC(=O)[C@H](CC(N)=O)NC(=O)[C@@H](NC(=O)[C@H](CCC(=O)O)NC(=O)[C@H](CCCNC(=N)N)NC(=O)[C@H](CC(=O)O)NC(=O)[C@H](Cc1c[nH]c2ccccc12)NC(=O)[C@H](CCC(=O)O)NC(=O)[C@H](CCSC)NC(=O)[C@@H]1Cc2c([nH]c3ccccc23)C(C(=O)NCCCC[C@H](NC(=O)CCNC(=O)C2N[C@H](C(=O)N[C@@H](CCSC)C(=O)N[C@@H](CCC(=O)O)C(=O)N[C@@H](Cc3c[nH]c4ccccc34)C(=O)N[C@@H](CC(=O)O)C(=O)N[C@@H](CCCNC(=N)N)C(=O)N[C@@H](CCC(=O)O)C(=O)N[C@H](C(=O)N[C@@H](CC(N)=O)C(=O)N[C@@H](CC(N)=O)C(=O)N[C@@H](Cc3ccc(O)cc3)C(=O)N[C@H](C(=O)N[C@@H](CO)C(=O)N[C@@H](CC(C)C)C(=O)N[C@H](C(=O)N[C@@H](Cc3c[nH]cn3)C(=O)N[C@@H](CO)C(=O)N[C@@H](CC(C)C)C(=O)N[C@H](C(=O)N[C@@H](CCC(=O)O)C(=O)N[C@@H](CCC(=O)O)C(=O)N[C@@H](CO)C(=O)N[C@@H](CCC(N)=O)C(=O)N[C@@H](CC(N)=O)C(=O)N[C@@H](CCC(N)=O)C(=O)N[C@@H](CCC(N)=O)C(=O)N[C@@H](CCC(=O)O)C(=O)N[C@@H](CCCCN)C(=O)N[C@@H](CC(N)=O)C(=O)N[C@@H](CCC(=O)O)C(=O)N[C@@H](CCC(N)=O)C(=O)N[C@@H](CCC(=O)O)C(=O)N[C@@H](CC(C)C)C(=O)N[C@@H](CC(C)C)C(=O)O)[C@@H](C)CC)[C@@H](C)CC)[C@@H](C)O)[C@@H](C)CC)Cc3c2[nH]c2ccccc32)C(=O)N[C@@H](CCCCNC(=O)CNC(=O)C2N[C@H](C(=O)N[C@@H](CCSC)C(=O)N[C@@H](CCC(=O)O)C(=O)N[C@@H](Cc3c[nH]c4ccccc34)C(=O)N[C@@H](CC(=O)O)C(=O)N[C@@H](CCCNC(=N)N)C(=O)N[C@@H](CCC(=O)O)C(=O)N[C@H](C(=O)N[C@@H](CC(N)=O)C(=O)N[C@@H](CC(N)=O)C(=O)N[C@@H](Cc3ccc(O)cc3)C(=O)N[C@H](C(=O)N[C@@H](CO)C(=O)N[C@@H](CC(C)C)C(=O)N[C@H](C(=O)N[C@@H](Cc3c[nH]cn3)C(=O)N[C@@H](CO)C(=O)N[C@@H](CC(C)C)C(=O)N[C@H](C(=O)N[C@@H](CCC(=O)O)C(=O)N[C@@H](CCC(=O)O)C(=O)N[C@@H](CO)C(=O)N[C@@H](CCC(N)=O)C(=O)N[C@@H](CC(N)=O)C(=O)N[C@@H](CCC(N)=O)C(=O)N[C@@H](CCC(N)=O)C(=O)N[C@@H](CCC(=O)O)C(=O)N[C@@H](CCCCN)C(=O)N[C@@H](CC(N)=O)C(=O)N[C@@H](CCC(=O)O)C(=O)N[C@@H](CCC(N)=O)C(=O)N[C@@H](CCC(=O)O)C(=O)N[C@@H](CC(C)C)C(=O)N[C@@H](CC(C)C)C(=O)O)[C@@H](C)CC)[C@@H](C)CC)[C@@H](C)O)[C@@H](C)CC)Cc3c2[nH]c2ccccc32)C(=O)N[C@@H](CO)C(=O)N[C@@H](CO)C(=O)N[C@@H](C)C(N)=O)N1)[C@@H](C)CC)[C@@H](C)O)[C@@H](C)CC)C(=O)N[C@@H](CCC(=O)O)C(=O)N[C@@H](CCC(=O)O)C(=O)N[C@@H](CO)C(=O)N[C@@H](CCC(N)=O)C(=O)N[C@@H](CC(N)=O)C(=O)N[C@@H](CCC(N)=O)C(=O)N[C@@H](CCC(N)=O)C(=O)N[C@@H](CCC(=O)O)C(=O)N[C@@H](CCCCN)C(=O)N[C@@H](CC(N)=O)C(=O)N[C@@H](CCC(=O)O)C(=O)N[C@@H](CCC(N)=O)C(=O)N[C@@H](CCC(=O)O)C(=O)N[C@@H](CC(C)C)C(=O)N[C@@H](CC(C)C)C(=O)O (stereo partly drawn) [Compound 3α-C34] | – | 88 | 0.06 | <5% | 34 | 1 | 1 | 42 | 1 | – | – | – | – | – |
| DP178 (from UniProt P04578 638-673) (peptide) | – | – | – | – | – | – | – | – | – | 32.3 | 4.31 | 22.1 | 76.4 | 3.9 |
